Data as given in patent publication US20060039931A1, “Stable cream preparations of phenyl-pyridone compounds for topical application” (MEPHA AG, priority 2002, published 2006).

Assay: Experiments on use of pyridone compounds in emulsions
Type: physicochemical
From the text: When an emulsion “breaks”, the oily and aqueous phases separate, leading to unwanted coalescence, i.e. a kind of confluence or coagulation of the constituents. This often results in a change in pH and may even cause the active ingredient to crystallize out. This disadvantageous property of pirfenidone is not discussed in said patents and patent applications and no teaching is offered to remedy the problem. Creams are merely cited as a possible topical form of application.

Behaviour in emulsions: behave as emulsion breakers
Compound: Cc1ccc(=O)n(-c2ccccc2)c1 [pirfenidone, 5-methyl-1-phenyl-2-(1H)-pyridone]
